Source: patent publication US8841312B2, “Fused pyridine, pyrimidine and triazine compounds as cell cycle inhibitors” (Amgen Inc., priority 2007, dated 2014)

Experiments:
neointima formation = settings: animal models; cited from earlier work
Cdk6/CyclinD3 = Cdk6/CyclinD3 (Homo sapiens (Human), UniProt Q00534); assay: Cdk6 kinase inhibition assay with recombinant Cdk6/CyclinD3, Rb substrate, [33P]-ATP filter plate; assay type: biochemical; settings: 25 μM ATP, read-out: Cdk 6 IC50
In short: (§1)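 Recombinant Cdk4/CyclinD1 or Cdk6/CyclinD3 phosphorylated Rb protein with [33P]-ATP for 1 h at room temperature. Protein was TCA-precipitated on filter plates and bound radioactivity counted. IC50 by nonlinear regression.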

Cdk4/CyclinD1 = Cdk4/CyclinD1 (Homo sapiens (Human), UniProt P11802); assay: Cdk4 kinase inhibition assay with recombinant Cdk4/CyclinD1, Rb substrate, [33P]-ATP filter plate; assay type: biochemical; settings: 25 μM ATP, read-out: Cdk 4 IC50
In short: as §1

Sequence of Cdk6/CyclinD3 (Q00534 whole entry): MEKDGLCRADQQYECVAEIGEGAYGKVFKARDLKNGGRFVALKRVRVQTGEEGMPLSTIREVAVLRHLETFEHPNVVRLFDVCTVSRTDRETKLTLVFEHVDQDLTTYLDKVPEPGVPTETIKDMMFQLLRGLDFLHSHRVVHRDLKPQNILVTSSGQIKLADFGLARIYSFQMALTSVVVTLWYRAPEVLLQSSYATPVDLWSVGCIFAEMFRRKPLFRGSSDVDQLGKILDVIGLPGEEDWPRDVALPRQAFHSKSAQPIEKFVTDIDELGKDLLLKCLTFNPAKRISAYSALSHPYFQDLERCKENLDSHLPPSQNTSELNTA
Sequence of Cdk6/CyclinD3 (P30281 whole entry partner): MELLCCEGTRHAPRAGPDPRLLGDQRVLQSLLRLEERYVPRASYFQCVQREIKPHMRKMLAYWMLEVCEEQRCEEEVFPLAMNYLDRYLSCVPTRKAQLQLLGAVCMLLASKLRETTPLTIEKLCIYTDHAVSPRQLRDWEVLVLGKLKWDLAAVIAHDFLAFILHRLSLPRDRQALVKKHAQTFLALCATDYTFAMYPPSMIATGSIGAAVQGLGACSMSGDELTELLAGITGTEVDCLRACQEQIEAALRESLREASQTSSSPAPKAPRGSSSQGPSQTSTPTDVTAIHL
Sequence of Cdk4/CyclinD1 (P11802 whole entry): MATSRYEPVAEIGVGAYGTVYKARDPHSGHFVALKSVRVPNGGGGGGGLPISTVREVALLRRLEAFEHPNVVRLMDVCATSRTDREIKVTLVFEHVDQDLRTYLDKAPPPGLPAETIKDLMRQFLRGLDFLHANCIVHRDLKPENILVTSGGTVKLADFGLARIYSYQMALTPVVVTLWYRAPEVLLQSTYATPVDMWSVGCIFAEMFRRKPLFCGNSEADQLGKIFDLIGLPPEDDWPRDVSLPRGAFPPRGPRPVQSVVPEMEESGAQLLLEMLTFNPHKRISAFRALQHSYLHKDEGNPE
Sequence of Cdk4/CyclinD1 (P24385 whole entry partner): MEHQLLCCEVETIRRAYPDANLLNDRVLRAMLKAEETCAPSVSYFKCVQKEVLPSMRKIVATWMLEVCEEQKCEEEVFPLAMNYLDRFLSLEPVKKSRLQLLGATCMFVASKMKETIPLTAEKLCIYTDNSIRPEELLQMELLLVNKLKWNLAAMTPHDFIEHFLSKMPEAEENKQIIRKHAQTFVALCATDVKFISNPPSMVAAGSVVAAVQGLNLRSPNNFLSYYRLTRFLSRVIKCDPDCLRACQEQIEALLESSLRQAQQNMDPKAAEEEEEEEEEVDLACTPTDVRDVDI

| Structure (SMILES) | inhibition of neointima formation (neointima formation) | IC50 (Cdk6/CyclinD3) | IC50 (Cdk4/CyclinD1) |
| --- | --- | --- | --- |
| COc1ccc(CNc2nc(N(CCO)CCO)nc3c2ncn3C(C)C)cc1 [CVT-313] | significant inhibition of neointima formation |  |  |
| OC1CN(C2CCN(c3ccc(Nc4ncc5c6ccncc6n(C6CCCC6)c5n4)nn3)CC2)C1 [Example 448] |  | 22 nM | 10 nM |
| c1ccc2c(c1)c1cnc(Nc3ccc(N4CCNCC4)cn3)nc1n2C1CCOCC1 [Example 38, (5-piperazin-1-yl-pyridin-2-yl)-[9-(tetrahydro-pyran-4-yl)-9H-pyrimido[4,5-b]indol-2-yl]-amine] |  | 15.3 nM | 2.1 nM |
| Cc1cc(Nc2ncc3c4ccncc4n(C4CCCC4)c3n2)cnc1N1CCNCC1 [Example 5, 9-cyclopentyl-N-(5-methyl-6-(1-piperazinyl)-3-pyridinyl)-9H-pyrido-[4′,3′:4,5]pyrrolo[2,3-d]pyrimidin-2-amine] |  | 4.2 nM | 0.91 nM |
| CCN(CCO)C1CCN(c2ccc(Nc3ncc4c5ccncc5n(C5CCCC5)c4n3)nn2)CC1 [Example 454] |  | 11 nM | 5.2 nM |
| O=C(c1cnc(Nc2ncc3c4ccncc4n(C4CCCC4)c3n2)s1)N1CCNCC1 [Example 50, 9-cyclopentyl-N-(5-(1-piperazinylcarbonyl)-1,3-thiazol-2-yl)-9H-pyrido[4′,3′:4,5]pyrrolo[2,3-d]pyrimidin-2-amine] |  | 112 nM | 66 nM |
| NC1[C@H]2CN(c3ccc(Nc4ncc5c6ccncc6n(C6CCCC6)c5n4)nn3)C[C@@H]12 (stereo partly drawn) [Example 272, N-(6-((1R,5S)-6-amino-3-azabicyclo[310]hex-3-yl)-3-pyridazinyl)-9-cyclopentyl-9H-pyrido[4′,3′:4,5]pyrrolo[2,3-d]pyrimidin-2-amine] |  | 101 nM | 27 nM |
| CN(C)C1CCN(c2ccc(Nc3ncc4c5ccnc(F)c5n(CC5CC5)c4n3)nn2)CC1 [Example 169] |  | 150 nM | 140 nM |
| C[C@H]1CN(c2ccc(Nc3ncc4c5ccncc5n(CCCO)c4n3)nc2)CCN1 [Example 351] |  | 176 nM | 80 nM |
| CN1CCN(c2ccc(Nc3ncc4c5ccccc5n(C5CCCC5)c4n3)nn2)CC1 [Example 301] |  | 22 nM | 31 nM |
| c1ccc2c(c1)c1cnc(Nc3ccc(N4CCNCC4)cc3)nc1n2C1CCCCC1 [Example 21, (9-Cyclohexyl-9H-pyrimido[4,5-b]indol-2-yl)-(4-piperazin-1-yl-phenyl)-amine] |  | 0.41 nM | 1 nM |
| C1=CCN(c2ccc(Nc3ncc4c5ccncc5n(C5CCCC5)c4n3)nn2)CC1 [Example 254, 9-Cyclopentyl-N-(6-(3,6-dihydro-1(2 H)-pyridinyl)-3-pyridazinyl)-9H-pyrido[4′,3′:4,5]pyrrolo[2,3-d]pyrimidin-2-amine] |  | 40 nM | 22 nM |
| O[C@H]1CCN(C2CCN(c3ccc(Nc4ncc5c6ccncc6n(C6CCCC6)c5n4)nn3)CC2)C1 [Example 450] |  | 16 nM | 10 nM |
| OCCCn1c2cnccc2c2cnc(Nc3ccc(N4CCNCC4)nn3)nc21 [Example 352] |  | 53 nM | 146 nM |
| CC(C)(C)n1c2cnccc2c2cnc(Nc3ccc(N4CCNCC4)cn3)nc21 [Example 27, (9-tert-Butyl-9H-pyrido[4′,3′:4,5]pyrrolo[2,3-d]pyrimidin-2-yl)-(5-piperazin-1-yl-pyridin-2-yl)-amine] |  | 7 nM | 5.5 nM |
| C[C@H](C1CCCCC1)n1c2cnccc2c2cnc(Nc3ccc(N4CCNCC4)cn3)nc21 [Example 28, (R)-[9-(1-Cyclohexyl-ethyl)-9H-pyrido[4′,3′:4,5]pyrrolo[2,3-d]pyrimidin-2-yl]-(5-piperazin-1-yl-pyridin-2-yl)-amine] |  | 61 nM | 57 nM |
| OC1CN(C2CCN(c3ccc(Nc4ncc5c6ccncc6n(C6CCCC6)c5n4)nc3)CC2)C1 [Example 474] |  | 12 nM | 5 nM |
| CC[C@@H](C)n1c2cnccc2c2cnc(Nc3ccc(N4CC[C@@H](O)C4)nn3)nc21 [Example 319] |  | 49 nM | 22 nM |
| O=C(c1ccc(Nc2ncc3c4ccncc4n(C4CCCC4)c3n2)nc1)N1CCNCC1 [Example 221, 9-cyclopentyl-N-(5-(1-piperazinylcarbonyl)-2-pyridinyl)-9H-pyrido[4′,3′:4,5]pyrrolo[2,3-d]pyrimidin-2-amine] |  | 8 nM | 1.4 nM |
